Measured values from ChEMBL document CHEMBL4616632, “Discovery of Cyclic Boronic Acid QPX7728, an Ultrabroad-Spectrum Inhibitor of Serine and Metallo-β-lactamases” (J Med Chem, 2020).

Tests used:
Enterobacter cloacae = assay: Inhibition of Enterobacter cloacae ECL1002 AmpC assessed as minimum concentration of compound needed to reduce the MIC of aztreonam to 4 ug/ml
Pseudomonas aeruginosa [1] = assay: Inhibition of Pseudomonas aeruginosa PAM 2035 AmpC assessed as minimum concentration of compound needed to reduce the MIC of aztreonam to 4 ug/ml
Klebsiella pneumoniae [2] = assay: Inhibition of Klebsiella pneumoniae KP1009 CTX-M-15 assessed as minimum concentration of compound required to reduce the MIC of aztreonam to 4 ug/ml
Escherichia coli [3] = assay: Inhibition of Escherichia coli EC302 TEM-10 assessed as minimum concentration of compound needed to reduce the MIC of aztreonam to 4 ug/ml
[4] = molecular target: Beta-lactamase (Klebsiella pneumoniae) (UniProt Q93LQ9); assay: Inhibition of Klebsiella pneumoniae KP1004 KPC-2 assessed as minimum concentration of compound needed to reduce the MIC of aztreonam to 4 ug/ml
Escherichia coli [5] = assay: Inhibition of Escherichia coli EC308 SHV-5 assessed as minimum concentration of compound needed to reduce the MIC of aztreonam to 4 ug/ml
Pseudomonas aeruginosa [6] = assay: Inhibition of Pseudomonas aeruginosa PAM 1154 KPC-2 assessed as assessed as minimum potentiating concentration of compound needed to reduce the MIC of biapenem by 64 fold
[7] = Ratio of inhibition of Pseudomonas aeruginosa PAM 1032 KPC-2 assessed as minimum potentiating concentration of compound needed to reduce the MIC of biapenem by 64 fold to inhibition of Pseudomonas aeruginosa PAM 1154 KPC-2 assessed as assessed as minimum potentiating concentration of compound needed to reduce the MIC of biapenem by 64 fold
Pseudomonas aeruginosa [8] = assay: Inhibition of Pseudomonas aeruginosa PAM 1032 KPC-2 assessed as minimum potentiating concentration of compound needed to reduce the MIC of biapenem by 64 fold
Klebsiella pneumoniae [9] = assay: Inhibition of Klebsiella pneumoniae KP1054 VIM-1 assessed as minimum concentration of compound required to reduce the MIC of biapenem to 1 ug/ml
Escherichia coli [10] = assay: Inhibition of Escherichia coli ECM6625 SHV-5 assessed as minimum concentration of compound needed to reduce the MIC of aztreonam to 4 ug/ml
Escherichia coli [11] = assay: Inhibition of Escherichia coli ECM6619 TEM-10 assessed as minimum concentration of compound needed to reduce the MIC of aztreonam to 4 ug/ml
Escherichia coli [12] = assay: Inhibition of Escherichia coli KP308 SHV-5 assessed as minimum concentration of compound required to reduce the MIC of aztreonam to 4 ug/ml
[13] = molecular target: Beta-lactamase OXA-23 (Acinetobacter baumannii) (UniProt Q9L4P2); assay: Inhibition of Acinetobacter baumannii AB1054 OXA-23 assessed as minimum concentration of compound needed to reduce the MIC of meropenem to 8 ug/ml
Acinetobacter baumannii = assay: Inhibition of Acinetobacter baumannii AB1053 OXA-72 assessed as minimum concentration of compound needed to reduce the MIC of meropenem to 8 ug/ml
Klebsiella pneumoniae [14] = assay: Inhibition of Klebsiella pneumoniae KP1160 IMP-26 assessed as minimum concentration of compound needed to reduce the MIC of meropenem to 1 ug/ml
Klebsiella pneumoniae [15] = assay: Inhibition of Klebsiella pneumoniae KP1081 NDM-1 assessed as minimum concentration of compound required to reduce the MIC of biapenem to 1 ug/ml

Beta-lactamase OXA-23 (Acinetobacter baumannii), sequence (Q9L4P2 whole entry): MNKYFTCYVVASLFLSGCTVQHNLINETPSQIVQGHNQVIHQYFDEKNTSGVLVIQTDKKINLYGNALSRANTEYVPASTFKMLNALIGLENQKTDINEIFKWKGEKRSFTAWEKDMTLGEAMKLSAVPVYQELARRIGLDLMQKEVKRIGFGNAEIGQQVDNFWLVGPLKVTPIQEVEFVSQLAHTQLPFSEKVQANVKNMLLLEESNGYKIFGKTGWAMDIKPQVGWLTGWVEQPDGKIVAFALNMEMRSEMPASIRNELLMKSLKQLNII
Beta-lactamase (Klebsiella pneumoniae), sequence (Q93LQ9 as listed by the source): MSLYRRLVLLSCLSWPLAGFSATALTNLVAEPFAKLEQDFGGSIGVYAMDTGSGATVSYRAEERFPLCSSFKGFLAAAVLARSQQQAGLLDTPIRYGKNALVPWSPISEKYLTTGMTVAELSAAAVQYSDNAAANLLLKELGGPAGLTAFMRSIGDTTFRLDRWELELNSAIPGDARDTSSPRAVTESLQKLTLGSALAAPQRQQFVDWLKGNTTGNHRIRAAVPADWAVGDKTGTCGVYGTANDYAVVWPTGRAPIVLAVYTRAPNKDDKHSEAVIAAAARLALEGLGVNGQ

Row | SMILES | MEC (Enterobacter cloacae) [µg/mL] | MEC (Pseudomonas aeruginosa [1]) [µg/mL] | MEC (Klebsiella pneumoniae [2]) [µg/mL] | MEC (Escherichia coli [3]) [µg/mL] | MEC [4] [µg/mL] | MEC (Escherichia coli [5]) [µg/mL] | Activity (Pseudomonas aeruginosa [6]) [µg/mL] | Ratio [7] | Activity (Pseudomonas aeruginosa [8]) [µg/mL] | MEC (Klebsiella pneumoniae [9]) [µg/mL] | MEC (Escherichia coli [10]) [µg/mL] | MEC (Escherichia coli [11]) [µg/mL] | MEC (Escherichia coli [12]) [µg/mL] | MEC [13] [µg/mL] | MEC (Acinetobacter baumannii) [µg/mL] | MEC (Klebsiella pneumoniae [14]) [µg/mL] | MEC (Klebsiella pneumoniae [15]) [µg/mL]
1 | CSCC(=O)N[C@H]1Cc2ccc(OCC(=O)O)c(C(=O)O)c2OB1O | 5 | > 20 | 2.5 | 5 | 5 | 0.08 | – | – | – | – | – | – | – | – | – | – | –
2 | COc1ccc2c(c1C(=O)O)OB(O)[C@@H](NC(=O)CSC)C2 | 0.6 | 20 | < 0.3 | < 0.3 | < 0.3 | < 0.3 | 5 | 2 | 10 | – | – | – | – | – | – | – | –
3 | CSCC(=O)N[C@H]1Cc2ccc(SCC(N)=O)c(C(=O)O)c2OB1O | 2.5 | > 20 | 0.6 | 1.25 | 2.5 | 0.16 | – | – | – | – | – | – | – | – | – | – | –
4 | COc1ccc2c(c1C(=O)O)OB(O)[C@@H](NC(=O)CSC1CNC1)C2 | – | – | – | – | – | – | 5 | 1 | 5 | – | – | – | – | – | – | – | –
5 | O=C(Cc1cccs1)N[C@H]1Cc2ccc(F)c(C(=O)O)c2OB1O | – | – | – | – | – | – | 10 | 4 | 40 | – | – | – | – | – | – | – | –
6 | CSCC(=O)N[C@H]1Cc2ccc(SC3CNC3)c(C(=O)O)c2OB1O | 10 | 20 | 0.6 | 5 | 1.25 | 0.6 | – | – | – | – | – | – | – | – | – | – | –
7 | CSCC(=O)N[C@H]1Cc2ccc(Sc3nnc(N)s3)c(C(=O)O)c2OB1O | 2.5 | > 20 | 2.5 | 2.5 | 5 | < 0.3 | – | – | – | – | – | – | – | – | – | – | –
8 | COc1ccc2c(c1C(=O)O)OB(O)[C@@H](CCO)C2 | 10 | 20 | 20 | > 20 | 5 | – | – | – | – | 2.5 | 20 | > 20 | 20 | 10 | 10 | > 20 | 2.5
9 | COc1ccc2c(c1C(=O)O)OB(O)C1CCC21 (stereo unspecified) | 10 | 10 | 10 | 10 | 5 | – | – | – | – | 5 | 10 | 10 | 10 | 10 | 5 | 20 | 10
10 | COc1ccc2c(c1C(=O)O)OB(O)CC21CC1 | 2.5 | 10 | 2.5 | 5 | 1.25 | – | – | – | – | 20 | 1.25 | 5 | 1.25 | 2.5 | 1.25 | > 20 | 2.5
11 | O=C(O)c1nccc2c1OB(O)[C@H]1C[C@@H]21 | 20 | 10 | 20 | 5 | 1.25 | – | – | – | – | 20 | 10 | 5 | 10 | 10 | 5 | > 20 | 20
12 | CSCC(=O)N[C@H]1Cc2ccc(OCCO)c(C(=O)O)c2OB1O | 5 | > 20 | 1.25 | 2.5 | 1.25 | < 0.3 | – | – | – | – | – | – | – | – | – | – | –
13 | C[C@H]1Cc2cccc(C(=O)O)c2OB1O | 20 | 1.25 | > 20 | > 20 | 1.25 | – | – | – | – | 5 | 20 | > 20 | 20 | > 20 | > 20 | > 20 | 1.25
14 | O=C(O)c1c(F)ccc2c1OB(O)[C@H]1C[C@@H]21 | 2.5 | 5 | 1.25 | 1.25 | 0.3 | – | – | – | – | > 20 | 1.25 | 1.25 | 1.25 | 10 | 5 | > 20 | 5
15 | C[C@@H]1Cc2cccc(C(=O)O)c2OB1O | > 20 | 1.25 | > 20 | > 20 | 5 | – | – | – | – | 20 | > 20 | > 20 | > 20 | > 20 | > 20 | > 20 | 10
